The source of these data is patent publication US20250277785A1, “MICROFLUIDIC DEVICES FOR EVALUATING FIBROSIS IN MATERIAL IMPLANTATION AND CANCER” (THE UNITED STATES OF AMERICA AS REPRESENTED BY THE …, priority 2022, published 2025).

One assay relates to RAW264.7 cells. Description: F-actin visualization of macrophage morphology. The settings on record: increasing concentrations of LPS. Format: cell-based, mouse. As to the method: (§1) L929 mouse fibroblasts and RAW264.7 mouse macrophages were fluorescently labelled with red and green […]® (Thermo Fisher Scientific) dyes respectively. Extensive studies were conducted to optimize cell seeding density, culture times, and biomaterial implantation. Cells were co-cultured two-dimensionally or within microfluidic devices described in Example 1, after which cancer spheroids or alginate-based biomaterials were implanted within the two-dimensional cultures and within the microfluidic devices. Immunostaining, fluorescence microscopy, Griess assays, and histological analysis were used to evaluate immune cell activation and fibrosis formation in response to the spheroids and implants. Griess Assays were performed on media collected from cultured cells. […] Co-culture of RAW264.7 and L929 cells were visualized with […]® dyes. […] F-actin visualization for RAW264.7 cells treated with LPS was performed. […] Co-culture of L929 and RAW264.7 cells was performed in the microfluidic device. L929 cells were cultured in 3D within the Matrigel channel, while macrophages were introduced in 2D from an adjacent channel. After 24 hours of co-culture, the cells were primarily retained within their respective channels.

For another assay, the system named is RAW264.7 macrophages. Description: Griess assay of nitrite production in media of cultured macrophages. Format: cell-based, mouse. Conditions: LPS stimulation of macrophages, 2D culture. On the procedure: as §1
A general note: Griess reagent forms a coloured azo dye with nitrite.

For assay [1], the system named is L929 cells and primary mouse skin fibroblasts. In words: Scar-in-a-jar immunostaining, effect of L-ascorbic acid type. The assay is classed as cell-based. The settings on record: cell type not specified for this statement. As to the method:
(§2) Inducing collagen deposition by fibroblasts in a two-dimensional model was studied. To determine whether L929 fibroblasts would deposit collagen in response to stimuli, well plate experiments were conducted following a protocol described in Good et al., “A High Content, Phenotypic ‘Scar-In-A-Jar’ Assay for Rapid Quantification of Collagen Fibrillogenesis Using Disease-Derived Pulmonary Fibroblasts,” BMC Biomedical Engineering, 1:14, 1-10 (2019), which is incorporated by reference herein in its entirety. Immunostaining experiments were carried out on L929 cells and primary mouse skin fibroblasts exposed to media containing L-ascorbic acid, FICOLL®, and TGF-β1. […] These findings indicate the relevance of and effects of cell type and L-ascorbic acid type on in vitro extracellular matrix deposition.

The test system of a further assay is WI-38 human lung cells. Description: Picrosirius red staining of decellularized extracellular matrix. The assay is classed as cell-based. The settings on record: Permanox plastic 4-chamber slides, 250,000 cells/chamber, with vs without L-ascorbic acid. On the procedure:
One method that can be used for visualization and quantification of collagen deposition in the microfluidic device is picrosirius red staining. […] Cells were grown in chambers with or without a fibronectin coating and with or without L-asorbic acid. […] In the absence of a fibronectin coating, no visible collagen deposition remained after 14-15 minutes of decellularization. […] Cells appear to deposit collagen fibers that are retained, even in the absence of a fibronectin coating, with a short decellularization time of five minutes. […]

For the next assay, the system named is L929 cells. Description: Scar-in-a-jar immunostaining, collagen deposition by fibroblasts in 2D. The assay is classed as cell-based, mouse. The settings on record: media containing L-ascorbic acid, FICOLL and TGF-β1. As to the method: as §2
In assay [2] the test system is primary mouse skin fibroblasts. The description is as above. The settings on record: media containing L-ascorbic acid, FICOLL and TGF-β1. Format: cell-based. On the procedure:
as §2

On to lipopolysaccharide [LPS], for which the “morphological changes (F-actin visualization)” value in the assay with RAW264.7 cells is reported as “Morphological changes were observed”. The “macrophage activation, as indicated by nitrite production” value in the assay with RAW264.7 macrophages was “led to macrophage activation”.
`O=C1O[C@H]([C@@H](O)CO)C(O)=C1O` [L-ascorbic acid]: in assay [1], the “effect of the type of L-ascorbic acid on Collagen I deposition” value is “had some effects”. Further, in the assay with WI-38 human lung cells, the “collagen deposition (picrosirius red)” value is reported as “increase in collagen deposition”.
As for “TGF-β1: transforming growth factor beta 1, stimulus for collagen deposition”, in the assay with L929 cells, the “Collagen I deposition in response to TGF-β1 treatment” value was “did not have increased Collagen I deposition” and the α-SMA expression entry was “no α-SMA expression”. In assay [2], the “Collagen I deposition in response to TGF-β1 treatment” value is reported as “Some increases” and the “α-SMA expression in response to TGF-β1 treatment” value was “Some increases”.
